{"source": "patent US11071727B2", "about": "“Therapeutic targeting of proteolytic cleavage of the mixed lineage leukemia gene product (MLL1) by taspase1 using kinase inhibitors” (Northwestern University, priority 2018, dated 2021)", "key": {"JUP and SLC43A2 mRNA": {"system": "JUP and SLC43A2 mRNA", "assay": "mRNA levels of JUP and SLC43A2 genes in SEM cells", "type": "cell-based, human", "protocol": "RNA-seq Analysis. Gene count tables were constructed using HTseq (Anders et al. 2015) with Ensembl gene annotations and used as input for edgeR 3.0.8 (Robinson et al. 2010). Genes with Benjamini-Hochburg adjusted p-values less than 0.01 were considered to be differentially expressed. GO enrichment analysis was evaluated by the MetaScape online software suite (Tripathi et al. 2015)."}, "MLL1 chromatin occupancy": {"system": "MLL1 chromatin occupancy", "assay": "ChIP-seq of MLL1 occupancy in 293T cells", "type": "cell-based, human", "conditions": "relative to DMSO control", "protocol": "(§1) FIG. 6. CKII inhibition increases genome-wide MLL occupancy and excludes SEC recruitment in MLL leukemia cells. (A) and (B) MLL1C occupancy in CX-4945 or TTP22 treated cells were shown relative to DMSO control. […] (C) Track examples of the MLL1 occupancy at the promoter regions of ELF2 and C6orf211. (D) CX-4945 inhibition of leukemia cell proliferation. Multiple MLL leukemia (orange lines) and non-MLL leukemia (blue lines) were cultured with different doses of CX-4945 for 3 days. Cell number was determined by cell counter and normalized to DMSO control. (E) SEM cells were treated with 0, 5 or 10 μM of CX-4945 for 30 hours and western blot was performed to determine the MLL1 full-length protein levels and MLL-AF4 fusion protein levels. (F) MLL-AFF1, AFF4 and ELL2 occupancies were decreased by CX-4945 treatment in SEM cells.\n(§2) ChIP-seq Analysis. 5×10^7 cells were used for each ChIP assay, as performed as previously described (Chen et al. 2015). Peaks were called with MACS v1.4.2 (Zhang et al. 2008) using default parameters and were annotated by the HOMER software (Heinz et al. 2010). Metaplots were generated using ngsplot (Shen et al. 2014). […] Differential occupancy of MLL1 was evaluated by edgeR, and peaks with Benjamini-Hochburg adjusted p-values less than 0.05 were considered to be differentially occupied. […]"}, "[1]": {"system": "MLL-AFF1, AFF4 and ELL2 occupancy", "assay": "ChIP-seq of MLL-AFF1, AFF4 and ELL2 occupancy in SEM cells", "type": "cell-based, human", "protocol": "as §1, §2"}, "[2]": {"system": "MLL1 cleavage by taspase1", "assay": "in vitro taspase1 cleavage assay on lysates of pretreated taspase1 KO cells", "type": "biochemical, human", "conditions": "293T taspase1 KO cells pretreated 30 hours with CX-4945 (3 μM) or TTP22 (10 μM), compared with DMSO control", "protocol": "FIG. 5. CKII inhibitors selectively increase full-length MLL1 protein levels by decreasing the phosphorylation of MLL1 near the cleavage sites. (A) Conservation of the sequences flanking MLL1-CS2, MLL2 and TFIIA cleavage sites and phosphorylated serine and threonine residues after the cleavage sites (highlighted in red). (B) and (C) 293T cells were transfected with vector control (VT), WT, AA or DD reporter constructs of MLL1-p75 or TFIIA. Western blot was performed with anti-Flag antibody for MLL1 (p75: FL, p47: cleaved) or TFIIA (p54: FL, p47: cleaved). (D) and (E) 293T cells were transfected with WT or AA reporter constructs of MLL1-p75 or TFIIA in the presence or absence of HA-taspase1. Western blot was performed with anti-Flag antibody for MLL1 or TFIIA, or anti-HA antibody for taspase1. (F) 293T cells were infected with shRNAs against CKIIα or CKIIα′. Western blot was performed with anti-MLL1C antibody for MLL1 full-length protein levels, and CKIIα or CKIIα′ for knockdown efficiency. (G) 293T cells were treated with DMSO or 10 μM CX-4945 for 30 hours. Cells were harvested and lysed for Western blot against MLL1, MLL2 or TFIIA using β-tubulin as the loading control. […]\nin vitro taspase1 cleavage assay. […] Cleavage efficiency was detected by western blot against MLL1C and TFIIA using Hsp90 as the loading control."}, "[3]": {"system": "MLL leukemia and non-MLL leukemia cells", "assay": "Leukemia cell proliferation by cell counting", "type": "cell-based, human", "conditions": "panel of MLL and non-MLL leukemia cell lines, increasing concentrations, 3 days", "protocol": "as §1\nCell culture. All of the cell lines were purchased from the American Type Culture Collection (Rockville, Md.). 293T, MCF7 and HCT116 cell lines were maintained in Dulbecco's modified Eagle's medium (DMEM) (Gibco, Gaithersburg, Md.) supplemented with 10% fetal bovine serum (FBS) (Gibco) at 37° with 5% CO2. SEM was maintained in IMDM with 10% FBS. […]\nCell Proliferation Assay. Cell proliferation was measured by cell counting using the Vi-CELL™ Cell Counter (Beckman Coulter Life Sciences, Indianapolis, Ind.). […]"}}}
{"smiles": "O=C(O)c1ccc2c(c1)nc(Nc1cccc(Cl)c1)c1ccncc12", "note": "[CX-4945, 5-(3-chlorophenylamino)benzo[c][2,6]naphthyridine-8-carboxylic acid]", "values": [{"measurement": "mRNA levels of JUP and SLC43A2 genes", "setting": "JUP and SLC43A2 mRNA", "value": "decrease of mRNA levels"}, {"measurement": "MLL1 occupancy (genome-wide)", "setting": "MLL1 chromatin occupancy", "value": "global increase of MLL1 occupancy"}, {"measurement": "genome-wide binding of MLL-AFF1, AFF4 and ELL2", "setting": "[1]", "value": "decrease"}, {"measurement": "cleavage efficiency by recombinant taspase1 protein", "setting": "[2]", "value": "cleavage efficiency was significantly diminished"}, {"measurement": "sensitivity of leukemic cell lines (cell number normalized to DMSO)", "setting": "[3]", "value": "MLL leukemia cells were generally more sensitive than non-MLL leukemic cells"}]}
